# Data taken from PMC7769561, “Antileishmanial activity of synthetic analogs of the naturally occurring quinolone alkaloid N-methyl-8-methoxyflindersin” (PLoS ONE, 2020).
# Where “and” joins values, the source holds several entries; their conditions need not be identical. Identical values can stand only once.
# Key:
# [1] = tested on: L. (V.) panamensis intracellular amastigotes; test: Antileishmanial activity in L. (V.) panamensis intracellular amastigotes in hMDMs; type: cell-based, Leishmania (Viannia) panamensis; settings: 72 h, ± SD
# [2] = tested on: L. (V.) panamensis intracellular amastigotes; test: as above; type: cell-based, Leishmania (Viannia) panamensis; settings: for SI (selectivity index = CC50/EC50): CC50 hMDMs / EC50 intracellular amastigotes
# Procedure: Next, 100 μL of the suspension was cultured in 96-well plates and infected with L. (V.) panamensis promastigotes (HMOM/COL/87/UA-140) at a 10:1 parasite:cell ratio. We incubated the plates in a 5% CO2 atmosphere for 4 h at 35°C. After incubation, we removed noninternalized parasites by washing the cells with 0.9% NaCl saline solution (Baxter International, Deerfield, IL, USA). The cells were incubated again for 24 h and then treated with each quinoline alkaloid–like compound at a concentration of 100, 10, 1, 0.1, and 0.01 μg/mL in a 5% CO2 atmosphere for 72 h at 36°C. Next, we quantified the percentage of infected cells using fluorescence microscopy, as previously described by Pérez-Cordero in 2011 [23], and quantified the parasite load (amount of intracellular promastigotes and amastigotes per cell) using Giemsa staining and flow cytometry (Cytomics FC 500 MPL; Beckman Coulter, Brea, CA, USA). […] Results were expressed as EC50 using Prism GraphPad software’s probit nonlinear regression analysis (https://www.graphpad.com/scientific-software/prism/).
# (§1) We used GraphPad Prism nonlinear regression analysis to estimate the percentage mortality with regard to CC50 and EC50. […] The antileishmanial activity with regard to promastigotes was classified as active according to Eq 2: Active=EC50<[LC50/2], (2) where LC50 is the median lethal concentration. We also used GraphPad Prism nonlinear regression analysis to determine the intracellular antileishmanial activity (concentration vs. response), depending on the infection (number of infected cells) and parasite burden (number of parasites/cell) obtained in experimental conditions. Parasite inhibition was estimated using Eq 3, where the plate MFI is 100% parasites: Infectioninhibition(%)=100−[(MIFexposedparasites/MIFunexposedparasites×100)] (3)
# The percentage inhibition was used to calculate EC50 by nonlinear regression analysis (fluorescence microscopy), while the parasite burden was evaluated as the percentage of intracellular promastigotes and amastigotes in 100 infected cells (Giemsa staining). […] The selectivity index (SI) was estimated using the following formula: SI=CC50/EC50
# [3] = tested on: L. (V.) panamensis promastigotes; test: Antileishmanial activity in L. (V.) panamensis promastigotes (resazurin, 72 h); type: cell-based, Leishmania (Viannia) panamensis; settings: L. (V.) panamensis promastigotes, ± SD; for EC50: read-out: EC50 Intracellular promastigotes (converted)
# Procedure: They were treated with quinoline alkaloid–like compounds at a concentration of 100, 10, 1, 0.1, and 0.01 μg/mL for 72 h at 26°C. Next, we determined antileishmanial activity using the resazurin method (Sigma-Aldrich). Promastigotes treated with amphotericin B (Sigma-Aldrich) and pentamidine (Sanofi-Aventis, Gentilly, France) were used as parasite death (positive) controls. Results were expressed as the medial effective concentration (EC50) using Prism GraphPad software for nonlinear regression analysis (https://www.graphpad.com/scientific-software/prism/).
# (§2) All assays required at least three independently duplicated experiments. We determined cytotoxicity against hMDMs and effectivity in L. (V) panamensis promastigotes according to each treatment’s mortality (compound and concentration) using Eq 1, where the control mean fluorescence intensity (MFI) was 100% viability: Validityinhibition(%)=100−[MIFexposedcells/MIFunexposedcells×100] (1)
# as §1
# in vitro = settings: human
# Procedure: We isolated hMDMs from buffy coats donated by the Institute of Local Science (Biotechnology and Health Innovation, Bogotá, Colombia) and spun them in Lymphoprep density gradient medium (Stem-Cell, Vancouver, Canada).
# Next, we added 100 μL of this culture to each quinoline alkaloid–like compound at a concentration of 200, 20, 2, 0.2, and 0.02 μg/mL. […] Cells treated with amphotericin B (Sigma-Aldrich) were used as cell apoptosis (positive) controls. Results were expressed as the medial cytotoxic concentration (CC50) using Prism GraphPad software for nonlinear regression analysis (https://www.graphpad.com/scientific-software/prism/).
# as §2, §1
# hMDMs = test: Apoptosis in noninfected and L. (V.) panamensis-infected hMDMs (annexin V/7AAD flow cytometry); type: cell-based, human; settings: compound at EC50, 72 h
# Procedure: Next, the cells were fixed with 4% paraformaldehyde for evaluating dead cells using a live/dead cell viability kit (Beckton, Dickinson and Company, Franklin Lakes, NJ, USA). hMDMs cultured without any treatment were used as viability controls, while those treated with 0.01% H2O2, 10 μg/mL of lipopolysaccharide (LPS; Sigma-Aldrich), and 1% dimethyl sulfoxide (DMSO) were used as cell mortality (positive) controls. Apoptotic and necrotic cells were quantified using flow cytometry (FACS Canto II; Becton, Dickinson and Company).
# [4] = tested on: L. (V.) panamensis-infected hMDMs; test: Transmission electron microscopy of L. (V.) panamensis-infected hMDMs; type: cell-based, human; settings: compound at EC50, 72 h, TEM; as to Cell membrane (ultrastructural modification grade): key: -: no alteration/absence; +: low alteration/low presence; ++: alteration/moderate presence; +++: serious disturbance/abundant presence; as to LB (lipid bodies, grade): key: -: no alteration/absence; +: low alteration/low presence; ++: alteration/moderate presence; +++: serious disturbance/abundant presence; as to Mitochondria (ultrastructural modification grade): key: -: no alteration/absence; +: low alteration/low presence; ++: alteration/moderate presence; +++: serious disturbance/abundant presence; as to Nucleus (ultrastructural modification grade): key: -: no alteration/absence; +: low alteration/low presence; ++: alteration/moderate presence; +++: serious disturbance/abundant presence
# From the text: (§3) This procedure involved including fresh resin and 100–200-nm-wide ultrafine cuts observed by TEM (100X–10.000X) (HITACHI-HU-12; Hitachi, Tokyo, Japan).
# [5] = tested on: L. (V.) panamensis intracellular amastigotes; test: Transmission electron microscopy of L. (V.) panamensis intracellular amastigotes in hMDMs; type: cell-based, Leishmania (Viannia) panamensis; set-up: Nucleus (ultrastructural alteration grade) / Vacuoles (ultrastructural alteration grade): key: -: no alteration/absence; +: low alteration/low presence; ++: alteration/moderate presence; +++: serious disturbance/abundant presence; settings: compound at EC50, 72 h, TEM
# From the text: as §3
# [6] = tested on: L. (V.) panamensis-infected hMDMs; test: ROS generation in L. (V.) panamensis-infected hMDMs (H2DCFDA flow cytometry); type: cell-based, human; settings: compound at EC50, 4, 24, 48 and 72 h
# Procedure: (§4) Next, we detached the cells with ethylenediaminetetraacetic acid (EDTA)/trypsin (Lonza, MD, USA) and 2',7'-dichlorodihydrofluorescein diacetate (H2DCFDA) tagged on a 5 μM fluorescent tube (Sigma-Aldrich) in order to identify intracellular ROS and/or 4-amino-5-methylamino-2′,7′-difluorofluorescein (DAF-FM; Sigma-Aldrich) for NO production in a 5% CO2 atmosphere for 45 min at 37°C. ROS and NO were quantified using flow cytometry (FACS Canto II) at a wavelength of 480 nm. Untreated cells were used as negative controls, while cells treated with 0.0001% H2O2 and 1 μM phorbol myristate acetate were used as ROS production (positive) controls. LPS (10 ng/mL) and phytohemagglutinin (PHA-M) (10 μL/mL) (Invitrogen) were used as positive controls for NO production.
# [7] = tested on: L. (V.) panamensis-infected hMDMs; test: NO production in L. (V.) panamensis-infected hMDMs (DAF-FM flow cytometry); type: cell-based, human
# Procedure: as §4
# [8] = amastigotes in hMDMs, 72 h, ± SD
smiles,measurement,setting,value
"C[C@@H]1[C@H](O)[C@@H](C)/C=C/C=C/C=C/C=C/C=C/C=C/C=C/[C@H](O[C@@H]2O[C@H](C)[C@@H](O)[C@H](N)[C@@H]2O)C[C@@H]2O[C@](O)(C[C@@H](O)C[C@@H](O)[C@H](O)CC[C@@H](O)C[C@@H](O)CC(=O)O[C@H]1C)C[C@H](O)[C@H]2C(=O)O [AMB, amphotericin B, reference compound]",EC50,[1],0.4 µg/mL and 400 nM
same,SI (selectivity index = CC50/EC50),[2],11.25
same,EC50,[3],0.3 µg/mL and 300 nM
same,CC50 at 72 h,in vitro,4.5 µg/mL and 4.9 µM
"COc1ccc2c3c(c(=O)n(C)c2c1)C=CC(C)(C)O3 [Compound 1, N-methyl-8-methoxyflindersin]","Percentage of apoptotic cells (annexin V+ 7AAD–, Q3)",hMDMs; L. (V.) panamensis-infected hMDMs,41.3%
same,"Percentage of apoptotic cells (annexin V+ 7AAD–, Q3)",hMDMs; noninfected (basal) hMDMs,20.2%
same,Cell membrane (ultrastructural modification grade),[4],-
same,"LB (lipid bodies, grade)",[4],-
same,Mitochondria (ultrastructural modification grade),[4],+
same,Nucleus (ultrastructural modification grade),[4],-
same,PV (description),[4],"Individuals, attached to the parasite"
same,"PV (parasitophorous vacuoles, grade)",[4],+
same,Parasites (grade),[4],+
same,Vacuoles (description),[4],Double membrane (autophagic-digestives)
same,Vacuoles (ultrastructural modification grade),[4],++
same,SI (selectivity index = CC50/EC50),[2],5.87
same,EC50,[2]; [8],29.2 µM
same,EC50 Intracellular amastigotes,[2]; [8],7.4 ± 1.95 µg/mL
same,Antileishmanial activity class,"[2]; intracellular amastigotes, class by EC50",high (high if EC50 < 25 μg/mL)
same,Cell membrane (description),[5],Integrity damage in membrane
same,Cell membrane (ultrastructural alteration grade),[5],+++
same,Flagellum (flagellar/axonema pocket) (grade),[5],-
same,"LB (lipid bodies, grade)",[5],-
same,Mitochondria/Kinetoplasts (ultrastructural alteration grade),[5],-
same,Nucleus (description),[5],Nuclear membrane damage
same,Nucleus (ultrastructural alteration grade),[5],+++
same,PV (description),[5],Individuals attached to the parasite
same,"PV (parasitophorous vacuoles, grade)",[5],+
same,Vacuoles (description),[5],Electrodense acidocalcisome type
same,Vacuoles (ultrastructural alteration grade),[5],++
same,ROS generation compared to infected control cells,[6],no significant variations
same,EC50 Intracellular promastigotes,[3],9.9 ± 3 µg/mL
same,EC50,[3],36.5 µM
same,NO production compared to untreated infected hMDMs,"[7]; compound at EC50, 24, 48 and 72 h",increase in NO production
same,NO production,"[7]; compound at EC50, 72 h posttreatment",increase in NO production
"Cc1cc(=O)[nH]c2ccccc12 [Compound 4, 4-methyl-2-(1H)-quinolinone]",EC50,[1],57.1 µg/mL and 256 µM
same,SI (selectivity index = CC50/EC50),[2],1.66
same,EC50,[3],62.3 µg/mL and 256 µM
same,CC50 at 72 h,in vitro,95.2 µg/mL and 391 µM
